Laboratory results: patent publication US9593305B2, “Differentiation of pluripotent stem cells” (Janssen Biotech, Inc., priority 2008, dated 2017)

Test system: H1 human embryonic stem cells
Test: Compound 34 with growth factor combinations including GDF-8, no activin A (Example 7, Table 6)
Format: cell-based
Procedure: Clusters of H1 human embryonic stem cells were grown on reduced growth factor […]™ (Invitrogen; Cat #356231)-coated tissue culture plastic. Cells were passaged using collagenase (Invitrogen; Cat #17104-019) treatment and gentle scraping, washed to remove residual enzyme, and plated with even dispersal at a ratio of 1:1 (surface area) on reduced growth factor […]™-coated 96-well black plates (Packard ViewPlates; PerkinElmer; Cat #6005182) using volumes of 100 μl/well. Cells were allowed to attach as clusters and then recover log phase growth over a 1 to 3 day period, feeding daily with MEF conditioned medium supplemented with 8 ng/ml bFGF (R&D Systems; Cat #233-FB). Plates were maintained at 37° C., 5% CO2 in a humidified box throughout the duration of assay.
Stocks of growth factors purchased from R&D Systems were EGF (Cat #236-EG), FGF4 (Cat #235-F4), PDGF-A (Cat #221-AA), PDGF-D (Cat #1159-SB), PDGF-A/B (Cat #222-AB), VEGF (Cat #293-VE), and GDF-8 (Cat #788-G8). Muscimol was purchased from Tocris (Cat #0289). All growth factors were solubilized in PBS with 0.1% BSA (Sigma; Cat #A7888) and stored frozen at −80° C. Muscimol was solubilized in 100% DMSO (Sigma; Cat #D2650) and stored frozen at −80° C. Cyclic aniline-pyridinotriazine compounds were available as 5 mM stocks in 96-well plate format, solubilized in 100% DMSO and stored at −80° C. Compound 34 was further diluted to an intermediate concentration of 0.2 mM in 50 mM HEPES (Invitrogen; Cat #15630-080), 20% DMSO and stored at 4° C. All growth factors and inhibitors were prepared in a deep well, 96-well polypropylene plate, diluted to 5× intermediate stocks in DMEM:F12 base medium at the beginning of assay and stored at 4° C.
A secondary screening assay was conducted, testing in triplicate and feeding on alternate days over the four-day assay timeframe. Assays were initiated by aspirating culture medium from each well followed by three washes in PBS to remove residual growth factors and serum. […] All remaining growth factors were tested at a final assay concentration of 50 ng/ml (EGF, FGF4, PDGF-A, PDGF-A/B, VEGF) with the exception of GDF-8 tested at 25 ng/ml. Final assay concentration of muscimol was 20 μM. […]
On day 3, wells were aspirated and fed with 80 μl DMEM:F12 base medium supplemented with 2.5% FCS (HyClone) and 3.125 μM Compound 34 plus 20 μl 5× stock of growth factors or small molecules per well to yield a final concentration of 2% FCS and 2.5 μM Compound 34 (omitting Wnt3a) and as denoted on day one for all remaining growth factors or small molecules. Positive control wells (100 μl/well) contained the same base medium supplemented with 2% FCS and 100 ng/ml activin A, omitting Wnt3a. Negative control wells (100 μl/well) contained the same base medium with 2% FCS, omitting both activin A and Wnt3a.
At the conclusion of four-days of culture, assay plates were washed twice with PBS, fixed with 4% paraformaldehyde (Alexis Biochemical; Cat ALX-350-011) at room temperature for 20 minutes, then washed three times with PBS and permeabilized with 0.5% Triton X-100 (Sigma; Cat #T8760-2) for 20 minutes at room temperature. Cells were washed again three times with PBS and blocked with 4% chicken serum (Invitrogen; Cat #16110082) in PBS for 30 minutes at room temperature. Primary antibody (goat anti-human SOX17; R&D Systems; cat #AF1924) was diluted 1:100 in 4% chicken serum and added to each well for one hour at room temperature. Alexa Fluor 488 conjugated secondary antibody (chicken anti-goat IgG; Molecular Probes; Cat #AZ1467) was diluted 1:200 in PBS and added to each sample well after washing three times with PBS. To counterstain nuclei, 4 μg/ml Hoechst 33342 (Invitrogen; Cat #H3570) was added for ten minutes at room temperature. Plates were washed once with PBS and left in 100 μl/well PBS for imaging. […]

[1] = no AA (with Wnt3a), EGF + FGF4 + PDGF-A + VEGF + PDGF-D + Muscimol + GDF8
[2] = no AA (with Wnt3a), GDF8 + PDGF-D
[3] = no AA (with Wnt3a), GDF8 + PDGF-D + VEGF
[4] = no AA (with Wnt3a), GDF8 + PDGF-D + VEGF + Muscimol
[5] = no AA (with Wnt3a), GDF8 + VEGF + Muscimol
[6] = no AA (with Wnt3a), PDGF-D + Muscimol
[7] = no AA (with Wnt3a), PDGF-D + Muscimol + VEGF
[8] = no AA (with Wnt3a), PDGF-D + VEGF
[9] = no AA (with Wnt3a), VEGF + Muscimol
[10] = no AA, no Wnt3a, EGF + FGF4 + PDGF-A + VEGF + PDGF-D + Muscimol + GDF8

## O=C1CCN2CCN(CC2)Cc2cc(Cl)cc(c2)Nc2ncnc(n2)-c2cncc(c2)CCCN1 [Compound 34, 5-Chloro-1,8,10,12,16,22,26,32-octaazapentacyclo[24.2.2.1˜3.7˜0.1˜9,13˜0.1˜14.18˜]tritriaconta-3(33), 4,6,9(32), 10,12,14(31), 15,17-nonaen-23-one]
2.5 μM Compound 34 with GDF-8 (25 ng/ml) and Wnt3a, no activin A
  SOX17 expression (% of control): 88 % of control
No AA (with Wnt3a), EGF
  Cell Number, % of positive control: 85.53%
  Cell Number, Average Total Cell Number: 6145
  Sox17 Expression, % of positive control: 19.18%
  Sox17 Expression, Average Total Intensity: 1.5E+07
[1]
  Cell Number, % of positive control: 83.90%
  Cell Number, Average Total Cell Number: 6028
  Sox17 Expression, % of positive control: 87.44%
  Sox17 Expression, Average Total Intensity: 7.0E+07
No AA (with Wnt3a), FGF4
  Cell Number, % of positive control: 74.09%
  Cell Number, Average Total Cell Number: 5323
  Sox17 Expression, % of positive control: 33.75%
  Sox17 Expression, Average Total Intensity: 2.7E+07
No AA (with Wnt3a), GDF8
  Cell Number, % of positive control: 88.44%
  Cell Number, Average Total Cell Number: 6354
  Sox17 Expression, % of positive control: 88.59%
  Sox17 Expression, Average Total Intensity: 7.1E+07
[2]
  Cell Number, % of positive control: 95.88%
  Cell Number, Average Total Cell Number: 6889
  Sox17 Expression, % of positive control: 72.59%
  Sox17 Expression, Average Total Intensity: 5.8E+07
[3]
  Cell Number, % of positive control: 77.74%
  Cell Number, Average Total Cell Number: 5585
  Sox17 Expression, % of positive control: 81.75%
  Sox17 Expression, Average Total Intensity: 6.6E+07
[4]
  Cell Number, % of positive control: 131.60%
  Cell Number, Average Total Cell Number: 9455
  Sox17 Expression, % of positive control: 119.24%
  Sox17 Expression, Average Total Intensity: 9.6E+07
[5]
  Cell Number, % of positive control: 84.67%
  Cell Number, Average Total Cell Number: 6083
  Sox17 Expression, % of positive control: 69.62%
  Sox17 Expression, Average Total Intensity: 5.6E+07
No AA (with Wnt3a), Muscimol
  Cell Number, % of positive control: 101.41%
  Cell Number, Average Total Cell Number: 7286
  Sox17 Expression, % of positive control: 38.38%
  Sox17 Expression, Average Total Intensity: 3.1E+07
No AA (with Wnt3a), PDGF-A
  Cell Number, % of positive control: 58.11%
  Cell Number, Average Total Cell Number: 4175
  Sox17 Expression, % of positive control: 13.43%
  Sox17 Expression, Average Total Intensity: 1.1E+07
No AA (with Wnt3a), PDGF-D
  Cell Number, % of positive control: 69.84%
  Cell Number, Average Total Cell Number: 5017
  Sox17 Expression, % of positive control: 18.76%
  Sox17 Expression, Average Total Intensity: 1.5E+07
[6]
  Cell Number, % of positive control: 48.57%
  Cell Number, Average Total Cell Number: 3490
  Sox17 Expression, % of positive control: 8.02%
  Sox17 Expression, Average Total Intensity: 6.5E+06
[7]
  Cell Number, % of positive control: 29.68%
  Cell Number, Average Total Cell Number: 2133
  Sox17 Expression, % of positive control: 3.32%
  Sox17 Expression, Average Total Intensity: 2.7E+06
[8]
  Cell Number, % of positive control: 70.01%
  Cell Number, Average Total Cell Number: 5030
  Sox17 Expression, % of positive control: 14.58%
  Sox17 Expression, Average Total Intensity: 1.2E+07
No AA (with Wnt3a), VEGF
  Cell Number, % of positive control: 65.60%
  Cell Number, Average Total Cell Number: 4713
  Sox17 Expression, % of positive control: 12.49%
  Sox17 Expression, Average Total Intensity: 1.0E+07
[9]
  Cell Number, % of positive control: 10.81%
  Cell Number, Average Total Cell Number: 776
  Sox17 Expression, % of positive control: 1.56%
  Sox17 Expression, Average Total Intensity: 1.3E+06
No AA (with Wnt3a), none
  Cell Number, % of positive control: 64.18%
  Cell Number, Average Total Cell Number: 4611
  Sox17 Expression, % of positive control: 17.21%
  Sox17 Expression, Average Total Intensity: 1.4E+07
[10]
  Cell Number, % of positive control: 66.21%
  Cell Number, Average Total Cell Number: 4757
  Sox17 Expression, % of positive control: 48.77%
  Sox17 Expression, Average Total Intensity: 3.9E+07

## GDF-8: growth factor GDF-8, also known as myostatin, member of the TGF-β family
GDF-8 25 ng/ml in any combination with Compound 34
  SOX17 expression: substantial increase in SOX17 expression
